One data set concerns MG-22A. Description: Cytotoxicity against mouse MG-22A cells after 72 hrs by MTT assay. It is filed as functional, cell-based. On the technique in general: Tetrazolium dyes change colour on reduction, which living cells bring about.
Data set [1] is described as follows: Acute toxicity in po dosed rat. It is filed as organism-based. Conditions: in vivo.
Data set [2] is described as follows: Cytotoxicity against mouse CCL8 cells after 72 hrs by MTT assay. The format is functional, cell-based. As to conditions: CCL8, 72 h.
A short description of data set [3]: Cytotoxicity against human MES-SA cells after 72 hrs by MTT assay. The format is functional, cell-based.
A short description of data set [4]: Cytotoxicity against human HT1080 cells after 72 hrs by MTT assay. The format is functional, cell-based. As to conditions: HT-1080, 72 h.
Data set [5] can be described thus: Cytotoxicity against mouse NIH/3T3 cells after 72 hrs by MTT assay. The format is cell-based. Conditions: NIH3T3, 72 h.
Data set [6] can be described thus: Cytotoxicity against human MDA-MB-435S cells after 72 hrs by MTT assay. The format is functional, cell-based.
A further data set has as its system MCF7. Description: Cytotoxicity against human MCF7 cells after 72 hrs by MTT assay. As to conditions: MCF7, 72 h. The format is functional, cell-based.
For data set [7], the system named is 4T1. Description: Antitumor activity against mouse 4T1 cells allografted in BALB/c mouse assessed as tumor growth inhibition at 1.8 mg/kg, ip administered 24 hrs post tumor implantation on even days of total 9 doses for 18 days relative to control. The format is functional. Conditions: 4T1, ip, route intraperitoneal, read-out: TGI.
Data set [8] deals with 4T1. Description: Antitumor activity against mouse 4T1 cells allografted in BALB/c mouse assessed as tumor growth inhibition at 15 mg/kg, ip administered 24 hrs post tumor implantation on even days of total 9 doses for 18 days measured after 18 days relative to control. The format is functional.
The next data set has as its system CCRF S-180. The data set is described as follows: Antitumor activity against mouse S180 cells allografted in ICR mouse assessed as tumor growth inhibition at 15 mg/kg, ip qd administered 24 hrs post tumor implantation for 9 days measured after 9 days relative to control. It is filed as functional, organism-based. Also on record: dose 15 mg/kg.
A further data set has as its system Mus musculus. The data set is described as follows: Toxicity in mouse 4T1 cells allografted BALB/c mouse assessed as body weight loss at 15 mg/kg, ip administered 24 hrs post tumor implantation on even days of total 9 doses for 18 days measured after 18 days relative to control. It is filed as organism-based. Details: dose 15 mg/kg, route intraperitoneal. Conditions: in vivo, 432 h.

This note sets out measurements from ChEMBL document CHEMBL3351494, “Selenium analogues of raloxifene as promising antiproliferative agents in treatment of breast cancer” (Eur J Med Chem, 2014).

Activity calls are given as the source filed them. The rule behind the calls is not given here.

A word on the IC50: it is the midpoint of a concentration-inhibition curve. Read a high IC50 as lower potency. Broadly, the LD50 is the dose expected to kill half of the subjects tested. A low value points to greater toxicity.

With `O=[Se]([O-])[O-].[Na+].[Na+]` [SODIUM SELENITE], the concentration for half-maximal inhibition (IC50) stood at 64 µM in the data set with MG-22A; 8 µM in [2]; 29 µM in [3]; 1.7 µM in [4]; 23 µM in data set [5]; 12 µM in data set [6]. For the same compound, in the data set with MCF7, the midpoint of inhibition, the IC50, lay at 17 µM. Moreover, the LD50 in data set [1] was 105 mg/kg.

In the case of `O=C(c1ccc(OCCN2CCCCC2)cc1)c1c(-c2ccc(O)cc2)sc2cc(O)ccc12` [RALOXIFENE], the inhibition in vivo at 1.8 mg/kg in the data set with 4T1 [7] came to 70%. Also, the half-maximal inhibitory concentration (IC50) in the data set on MG-22A came out at 6.8 µM; in [2], 27 µM; in data set [3], 37 µM; in data set [4] it was 34 µM; in data set [5] it was 7.8 µM; in [6], 26 µM. For the same compound, half-maximal inhibition with MCF7 (IC50) required 50 µM. The same compound displayed a 50% lethal dose (LD50) in data set [1] of 255 mg/kg. In addition, the TGI entry with 4T1 [8] and in the data set on CCRF S-180 was “inactive” each time.

Turning to `Cl.O=C(c1ccc(OCCN2CCOCC2)cc1)c1[se]c2cc(O)ccc2c1-c1ccc(O)cc1`, the half-inhibitory concentration (IC50) is 5.2 µM in the data set on MG-22A; 3.4 µM in data set [2]; 6.9 µM in data set [3]; 8.6 µM in data set [4]; 16 µM in data set [5]; 15.5 µM in data set [6]. For the same compound, in the data set with MCF7, the half-maximal inhibitory concentration (IC50) came to 31 µM. This compound also came in with a median lethal dose (LD50) in data set [1] of 465 mg/kg.

For the compound `Cl.O=C(c1ccc(OCCN2CCCCC2)cc1)c1[se]c2cc(O)ccc2c1-c1ccc(O)cc1`, the half-maximal inhibitory concentration (IC50) in the data set with MG-22A was determined as 3.6 µM; in data set [2], 3.6 µM; in data set [3], 14.3 µM; in data set [4], 30 µM; in data set [5], 28 µM; in [6], 32 µM. The same compound yielded an IC50 in the data set with MCF7 of 25 µM. Besides, in data set [1], the LD50 came out at 615 mg/kg.

In the case of `CNCCOc1ccc(C(=O)c2c(-c3ccc(O)cc3)[se]c3cc(O)ccc23)cc1.Cl`, the half-maximal inhibitory concentration (IC50) was found to be 6 µM with MG-22A; 46 µM in data set [2]; 42 µM in data set [3]; 6 µM in [4]; 32 µM in [5]; 17 µM in data set [6]. The half-inhibitory concentration (IC50) in the data set on MCF7 stood at 12 µM. Further, in data set [1], the median lethal dose (LD50) was 452 mg/kg.

In the case of `CCCCCCCCN(C)CCOc1ccc(C(=O)c2c(-c3ccc(O)cc3)[se]c3cc(O)ccc23)cc1.Cl`, the 50% inhibitory concentration (IC50) was 3.2 µM with MG-22A; 4.7 µM in data set [2]; 4 µM in data set [3]; 4.7 µM in [4]; 8 µM in data set [5]; 4 µM in [6]. Further, inhibition with MCF7 was half-maximal at 4.7 µM (IC50). In data set [1], this compound displayed a median lethal dose (LD50) of 308 mg/kg.

`CN(C)CCOc1ccc(C(=O)c2[se]c3cc(O)ccc3c2-c2ccc(O)cc2)cc1.Cl`: the half-inhibitory concentration (IC50) worked out at 3.9 µM in the data set on MG-22A; 3.8 µM in data set [2]; 5.8 µM in [3]; 5.8 µM in data set [4]; 31 µM in data set [5]; 3.8 µM in data set [6]. Half-maximal inhibition with MCF7 (IC50) required 17.3 µM. In data set [1], the 50% lethal dose (LD50) is 674 mg/kg.

Consider `Cl.O=C(c1ccc(OCCN2CCOCC2)cc1)c1c(-c2ccc(O)cc2)[se]c2cc(O)ccc12`, for which the IC50 stood at 8 µM in the data set on MG-22A; 9.8 µM in [2]; 61 µM in data set [3]; 46 µM in data set [4]; 36 µM in data set [5]; 32 µM in data set [6]. For the same compound, the IC50 in the data set on MCF7 turned out to be 38 µM. Besides, in data set [1], the median lethal dose (LD50) came to 553 mg/kg.

Take `Cl.O=C(c1ccc(OCCN2CCCCC2)cc1)c1c(-c2ccc(F)cc2)[se]c2cc(F)ccc12`: the IC50 with MG-22A amounted to 4.5 µM; in data set [2] it was 3.6 µM; in data set [3], 4.5 µM; in data set [4] it was 4.5 µM; in data set [5] it was 9 µM; in [6], 3.6 µM. In the data set with MCF7, this compound gave a concentration for half-maximal inhibition (IC50) of 11.6 µM. In data set [1], this compound came in with a 50% lethal dose (LD50) of 280 mg/kg.

In the case of `Cl.O=C(c1ccc(OCCN2CCCC2)cc1)c1c(-c2ccc(O)cc2)[se]c2cc(O)ccc12`, the concentration for half-maximal inhibition (IC50) with MG-22A amounted to 21 µM; in data set [2] it was 34 µM; in data set [3], 32 µM; in [4], 36 µM; in [5], 42 µM; in [6], 43 µM. 33 µM corresponded to half-maximal inhibition with MCF7 (IC50). In data set [1], this compound yielded an LD50 of 543 mg/kg.

With `Cl.O=C(c1ccc(OCCN2CCOCC2)cc1)c1c(-c2ccc(F)cc2)[se]c2cc(F)ccc12`, the IC50 with MG-22A was 21 µM; in data set [2], 25 µM; in data set [3], 53 µM; in data set [4] it was 27 µM; in [5], 363 µM; in data set [6] it was 168 µM. In the data set on MCF7, this compound displayed an IC50 of 121 µM. In [1], this compound displayed an LD50 of 1410 mg/kg.

For `Cl.O=C(c1ccc(OCCN2CCCCC2)cc1)c1c(-c2ccc(O)cc2)[se]c2cc(O)ccc12`, the inhibition in vivo at 1.8 mg/kg in the data set with 4T1 [7] was 4%. Further, the IC50 in the data set on MG-22A came to 5.4 µM; in data set [2], 5.4 µM; in data set [3], 56 µM; in data set [4] it was 12 µM; in data set [5], 22 µM; in [6] it was 3.6 µM. The compound also had an IC50 with MCF7 of 35 µM. In data set [1], this compound showed an LD50 of 446 mg/kg. The inhibition in vivo at 15 mg/kg with 4T1 [8] (4T1, ip, route intraperitoneal, read-out: TGI) worked out at 30%. Moreover, in the data set with CCRF S-180, the TGI result was “inactive”. For the same compound, the Activity entry in the data set on Mus musculus is “Non-toxic”.

As to `CN(C)CCOc1ccc(C(=O)c2c(-c3ccc(F)cc3)[se]c3cc(F)ccc23)cc1.Cl`, the half-inhibitory concentration (IC50) in the data set on MG-22A was 3.8 µM; in [2], 3.8 µM; in [3], 3.8 µM; in data set [4] it was 4.8 µM; in data set [5] it was 11 µM; in [6], 3.5 µM. This compound also came in with a concentration for half-maximal inhibition (IC50) with MCF7 of 6.7 µM. For the same compound, the median lethal dose (LD50) in [1] came out at 313 mg/kg.

On to `CN(C)CCOc1ccc(C(=O)c2c(-c3ccc(O)cc3)[se]c3cc(O)ccc23)cc1.Cl`, for which the 50% inhibitory concentration (IC50) in the data set with MG-22A stood at 9 µM; in data set [2] it was 28 µM; in data set [3] it was 51 µM; in data set [4], 48 µM; in [5], 20 µM; in [6], 26 µM. The midpoint of inhibition with MCF7, the IC50, lay at 22 µM. Moreover, the LD50 in data set [1] stood at 413 mg/kg.

`C[N+](C)(C)CCOc1ccc(C(=O)c2c(-c3ccc(O)cc3)[se]c3cc(O)ccc23)cc1.[Cl-]`: the IC50 in the data set on MG-22A came out at 124 µM; in data set [4], 131 µM; in data set [5], 452 µM. Also, the LD50 in [1] is 1540 mg/kg.

In the case of `Cl.O=C(c1ccc(OCCN2CCCCCC2)cc1)c1c(-c2ccc(O)cc2)[se]c2cc(O)ccc12`, the 50% inhibitory concentration (IC50) in the data set on MG-22A came out at 5.2 µM; in data set [2] it was 36 µM; in [3] it was 39 µM; in data set [4], 27 µM; in data set [5], 14 µM; in data set [6], 14 µM. Further, inhibition with MCF7 was half-maximal at 40 µM (IC50). The 50% lethal dose (LD50) in [1] is 400 mg/kg.
